The record followed here is patent publication US20230123334A1, “AMINO LIPID COMPOUND, PREPARATION METHOD THEREFOR, AND APPLICATION THEREOF” (SHENZHEN SHENXIN BIOTECHNOLOGY CO., LTD., priority 2020, published 2023).

For this assay, the system named is HEK293 cells. The experiment in a line: Preliminary screening as mRNA vectors, EGFP mRNA transfection of HEK293 cells. It is filed as cell-based. The settings on record: EGFP mRNA 50 ng per well, 96-well plates; percentage of GFP fluorescent cells relative to total number of cells (Hoechst). The procedure, abridged: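 Screening format: EGFP mRNA transfection (50 ng/well) into HEK293 in 10% FBS-supplemented DMEM. Percent green fluorescent cells, normalised to Hoechst nuclear count, gave the value; Lipofectamine2000 was the reference transfectant.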

`CCCCCCNc1nc(NCCCN2CCOCC2)nc(SCCCCCC)n1` [Compound D8S6N6]: the “Absolute mRNA transfection efficiency in HEK293 cells” value (“Absolute mRNA transfection efficiency” for short) turned out to be 0.0%.

Regarding `CCCCCCCNc1nc(NCCCN2CCOCC2)nc(SCCCCCC)n1` [Compound D8S6N7], the “Absolute mRNA transfection efficiency” value is 0.4%.

Regarding `CCCCCCCCNc1nc(NCCCN2CCOCC2)nc(SCCCCCC)n1` [Compound D8S6N8], the “Absolute mRNA transfection efficiency” value was 0.2%.

On to `CCCCCCCCCNc1nc(NCCCN2CCOCC2)nc(SCCCCCC)n1` [Compound D8S6N9], for which the “Absolute mRNA transfection efficiency” value is listed as 1.2%.

With `CCCCCCCCCCCNc1nc(NCCCN2CCOCC2)nc(SCCCCCC)n1` [Compound D8S6N11], the “Absolute mRNA transfection efficiency” value is reported as 1.1%.

`CCCCCCCCCCCCNc1nc(NCCCN2CCOCC2)nc(SCCCCCC)n1` [Compound D8S6N12]: the “Absolute mRNA transfection efficiency” value was determined as 2.0%.

With `CCCCCCCCCCCCCNc1nc(NCCCN2CCOCC2)nc(SCCCCCC)n1` [Compound D8S6N13], the “Absolute mRNA transfection efficiency” value is 0.0%.

With `CCCCCCCCCCCCCCCNc1nc(NCCCN2CCOCC2)nc(SCCCCCC)n1` [Compound D8S6N15], the “Absolute mRNA transfection efficiency” value was determined as 0.1%.

On to `CCCCCCCCCCCCCCCCNc1nc(NCCCN2CCOCC2)nc(SCCCCCC)n1` [Compound D8S6N16], for which the “Absolute mRNA transfection efficiency” value is reported as 0.6%.

Regarding `CCCCCCCCCCCCCCCCCCNc1nc(NCCCN2CCOCC2)nc(SCCCCCC)n1` [Compound D8S6N18], the “Absolute mRNA transfection efficiency” value amounted to 0.7%.

In the case of `CCCCCCSc1nc(NCCCN2CCOCC2)nc(SCCCCCC)n1` [Compound D8S6S6], the “Absolute mRNA transfection efficiency” value is 0.0%.

Turning to `CCCCCCCSc1nc(NCCCN2CCOCC2)nc(SCCCCCC)n1` [Compound D8S6S7], the “Absolute mRNA transfection efficiency” value stood at 1.5%.

`CCCCCCCCSc1nc(NCCCN2CCOCC2)nc(SCCCCCC)n1` [Compound D8S6S8]: the “Absolute mRNA transfection efficiency” value stood at 0.2%.

Turning to `CCCCCCCCCSc1nc(NCCCN2CCOCC2)nc(SCCCCCC)n1` [Compound D8S6S9], the “Absolute mRNA transfection efficiency” value turned out to be 5.0%.

With `CCCCCCCCCCSc1nc(NCCCN2CCOCC2)nc(SCCCCCC)n1` [Compound D8S6S10], the “Absolute mRNA transfection efficiency” value amounted to 4.2%.

Take `CCCCCCCCCCCSc1nc(NCCCN2CCOCC2)nc(SCCCCCC)n1` [Compound D8S6S11]: the “Absolute mRNA transfection efficiency” value came to 1.5%.

For the compound `CCCCCCCCCCCCSc1nc(NCCCN2CCOCC2)nc(SCCCCCC)n1` [Compound D8S6S12], the “Absolute mRNA transfection efficiency” value came out at 11.1%.

`CCCCCCCCCCCCCCSc1nc(NCCCN2CCOCC2)nc(SCCCCCC)n1` [Compound D8S6S14]: the “Absolute mRNA transfection efficiency” value amounted to 6.8%.

For the compound `CCCCCCCCCCCCCCCSc1nc(NCCCN2CCOCC2)nc(SCCCCCC)n1` [Compound D8S6S15], the “Absolute mRNA transfection efficiency” value is listed as 2.8%.

As to `CCCCCCCCCCCCCCCCSc1nc(NCCCN2CCOCC2)nc(SCCCCCC)n1` [Compound D8S6S16], the “Absolute mRNA transfection efficiency” value is listed as 43.1%.

For `CCCCCCCCCCCCCCCCCCSc1nc(NCCCN2CCOCC2)nc(SCCCCCC)n1` [Compound D8S6S18], the “Absolute mRNA transfection efficiency” value came out at 12.6%.

`CCCCCCCSc1nc(NCCCCCC)nc(NCCCN2CCOCC2)n1` [Compound D8S7N6]: the “Absolute mRNA transfection efficiency” value worked out at 1.8%.

Take `CCCCCCCNc1nc(NCCCN2CCOCC2)nc(SCCCCCCC)n1` [Compound D8S7N7]: the “Absolute mRNA transfection efficiency” value is 1.4%.

In the case of `CCCCCCCCNc1nc(NCCCN2CCOCC2)nc(SCCCCCCC)n1` [Compound D8S7N8], the “Absolute mRNA transfection efficiency” value came to 1.8%.

As to `CCCCCCCCCNc1nc(NCCCN2CCOCC2)nc(SCCCCCCC)n1` [Compound D8S7N9], the “Absolute mRNA transfection efficiency” value is given as 10.6%.

Consider `CCCCCCCCCCCNc1nc(NCCCN2CCOCC2)nc(SCCCCCCC)n1` [Compound D8S7N11], for which the “Absolute mRNA transfection efficiency” value is 20.1%.

Turning to `CCCCCCCCCCCCNc1nc(NCCCN2CCOCC2)nc(SCCCCCCC)n1` [Compound D8S7N12], the “Absolute mRNA transfection efficiency” value turned out to be 2.3%.

Turning to `CCCCCCCCCCCCCNc1nc(NCCCN2CCOCC2)nc(SCCCCCCC)n1` [Compound D8S7N13], the “Absolute mRNA transfection efficiency” value turned out to be 5.8%.

Turning to `CCCCCCCCCCCCCCCNc1nc(NCCCN2CCOCC2)nc(SCCCCCCC)n1` [Compound D8S7N15], the “Absolute mRNA transfection efficiency” value came to 2.8%.

For `CCCCCCCCCCCCCCCCNc1nc(NCCCN2CCOCC2)nc(SCCCCCCC)n1` [Compound D8S7N16], the “Absolute mRNA transfection efficiency” value is recorded as 1.2%.

As to `CCCCCCCCCCCCCCCCCCNc1nc(NCCCN2CCOCC2)nc(SCCCCCCC)n1` [Compound D8S7N18], the “Absolute mRNA transfection efficiency” value is reported as 3.0%.

For the compound `CCCCCCCSc1nc(NCCCN2CCOCC2)nc(SCCCCCCC)n1` [Compound D8S7S7], the “Absolute mRNA transfection efficiency” value is 5.0%.

On to `CCCCCCCCSc1nc(NCCCN2CCOCC2)nc(SCCCCCCC)n1` [Compound D8S7S8], for which the “Absolute mRNA transfection efficiency” value was 5.0%.

In the case of `CCCCCCCCCSc1nc(NCCCN2CCOCC2)nc(SCCCCCCC)n1` [Compound D8S7S9], the “Absolute mRNA transfection efficiency” value worked out at 18.6%.

On to `CCCCCCCCCCSc1nc(NCCCN2CCOCC2)nc(SCCCCCCC)n1` [Compound D8S7S10], for which the “Absolute mRNA transfection efficiency” value is recorded as 11.4%.

For the compound `CCCCCCCCCCCSc1nc(NCCCN2CCOCC2)nc(SCCCCCCC)n1` [Compound D8S7S11], the “Absolute mRNA transfection efficiency” value was determined as 23.1%.

Take `CCCCCCCCCCCCSc1nc(NCCCN2CCOCC2)nc(SCCCCCCC)n1` [Compound D8S7S12]: the “Absolute mRNA transfection efficiency” value came to 20.7%.

`CCCCCCCCCCCCCCSc1nc(NCCCN2CCOCC2)nc(SCCCCCCC)n1` [Compound D8S7S14]: the “Absolute mRNA transfection efficiency” value turned out to be 21.2%.

For the compound `CCCCCCCCCCCCCCCSc1nc(NCCCN2CCOCC2)nc(SCCCCCCC)n1` [Compound D8S7S15], the “Absolute mRNA transfection efficiency” value came to 25.2%.

On to `CCCCCCCCCCCCCCCCSc1nc(NCCCN2CCOCC2)nc(SCCCCCCC)n1` [Compound D8S7S16], for which the “Absolute mRNA transfection efficiency” value is 22.7%.

`CCCCCCCCCCCCCCCCCCSc1nc(NCCCN2CCOCC2)nc(SCCCCCCC)n1` [Compound D8S7S18]: the “Absolute mRNA transfection efficiency” value stood at 26.7%.

For the compound `CCCCCCCCSc1nc(NCCCCCC)nc(NCCCN2CCOCC2)n1` [Compound D8S8N6], the “Absolute mRNA transfection efficiency” value came out at 1.0%.

For the compound `CCCCCCCCSc1nc(NCCCCCCC)nc(NCCCN2CCOCC2)n1` [Compound D8S8N7], the “Absolute mRNA transfection efficiency” value was 0.1%.

In the case of `CCCCCCCCNc1nc(NCCCN2CCOCC2)nc(SCCCCCCCC)n1` [Compound D8S8N8], the “Absolute mRNA transfection efficiency” value is 1.3%.

For `CCCCCCCCCNc1nc(NCCCN2CCOCC2)nc(SCCCCCCCC)n1` [Compound D8S8N9], the “Absolute mRNA transfection efficiency” value amounted to 3.5%.

As to `CCCCCCCCCCCNc1nc(NCCCN2CCOCC2)nc(SCCCCCCCC)n1` [Compound D8S8N11], the “Absolute mRNA transfection efficiency” value is on record as 7.9%.

Regarding `CCCCCCCCCCCCNc1nc(NCCCN2CCOCC2)nc(SCCCCCCCC)n1` [Compound D8S8N12], the “Absolute mRNA transfection efficiency” value amounted to 3.8%.

In the case of `CCCCCCCCCCCCCNc1nc(NCCCN2CCOCC2)nc(SCCCCCCCC)n1` [Compound D8S8N13], the “Absolute mRNA transfection efficiency” value was 1.5%.

For the compound `CCCCCCCCCCCCCCCNc1nc(NCCCN2CCOCC2)nc(SCCCCCCCC)n1` [Compound D8S8N15], the “Absolute mRNA transfection efficiency” value is 4.6%.

For the compound `CCCCCCCCCCCCCCCCNc1nc(NCCCN2CCOCC2)nc(SCCCCCCCC)n1` [Compound D8S8N16], the “Absolute mRNA transfection efficiency” value is 4.9%.

Regarding `CCCCCCCCCCCCCCCCCCNc1nc(NCCCN2CCOCC2)nc(SCCCCCCCC)n1` [Compound D8S8N18], the “Absolute mRNA transfection efficiency” value came to 1.2%.

Turning to `CCCCCCCCSc1nc(NCCCN2CCOCC2)nc(SCCCCCCCC)n1` [Compound D8S8S8], the “Absolute mRNA transfection efficiency” value turned out to be 48.2%.

Consider `CCCCCCCCCSc1nc(NCCCN2CCOCC2)nc(SCCCCCCCC)n1` [Compound D8S8S9], for which the “Absolute mRNA transfection efficiency” value worked out at 47.2%.

As to `CCCCCCCCCCSc1nc(NCCCN2CCOCC2)nc(SCCCCCCCC)n1` [Compound D8S8S10], the “Absolute mRNA transfection efficiency” value is given as 40.9%.

Take `CCCCCCCCCCCSc1nc(NCCCN2CCOCC2)nc(SCCCCCCCC)n1` [Compound D8S8S11]: the “Absolute mRNA transfection efficiency” value was determined as 22.2%.

Turning to `CCCCCCCCCCCCSc1nc(NCCCN2CCOCC2)nc(SCCCCCCCC)n1` [Compound D8S8S12], the “Absolute mRNA transfection efficiency” value worked out at 67.9%.

With `CCCCCCCCCSc1nc(NCCCCCC)nc(NCCCN2CCOCC2)n1` [Compound D8S9N6], the “Absolute mRNA transfection efficiency” value stood at 0.6%.

As to `CCCCCCCCCSc1nc(NCCCCCCC)nc(NCCCN2CCOCC2)n1` [Compound D8S9N7], the “Absolute mRNA transfection efficiency” value was 2.2%.

As to `CCCCCCCCCSc1nc(NCCCCCCCC)nc(NCCCN2CCOCC2)n1` [Compound D8S9N8], the “Absolute mRNA transfection efficiency” value was 5.7%.

In the case of `CCCCCCCCCNc1nc(NCCCN2CCOCC2)nc(SCCCCCCCCC)n1` [Compound D8S9N9], the “Absolute mRNA transfection efficiency” value is 14.0%.

Regarding `CCCCCCCCCCCNc1nc(NCCCN2CCOCC2)nc(SCCCCCCCCC)n1` [Compound D8S9N11], the “Absolute mRNA transfection efficiency” value is 23.5%.

As to `CCCCCCCCCCCCNc1nc(NCCCN2CCOCC2)nc(SCCCCCCCCC)n1` [Compound D8S9N12], the “Absolute mRNA transfection efficiency” value stood at 11.2%.

For the compound `CCCCCCCCCCCCCNc1nc(NCCCN2CCOCC2)nc(SCCCCCCCCC)n1` [Compound D8S9N13], the “Absolute mRNA transfection efficiency” value was 12.6%.

Consider `CCCCCCCCCCCCCCCNc1nc(NCCCN2CCOCC2)nc(SCCCCCCCCC)n1` [Compound D8S9N15], for which the “Absolute mRNA transfection efficiency” value was determined as 7.2%.
